Laboratory results from patent publication US20220257491A1, “Prebiotic Oral Care Compositions and Methods” (Colgate-Palmolive Company, priority 2021, published 2022).
Marks after values point to notes of the source that are not given here.

Columns and labels:
Assay type in all cases: cell-based
[1] = test system: P. intermedia; assay: Multi-species biofilm composition: absolute abundance of P. intermedia; details: mean±SD n=3
Method: (§1) Biofilms are grown vertically on Calcium Deficient Hydroxyapatite (CAD-HA) disks (Hitemco Medical, Old Bethpage, USA) using the Amsterdam Active Adhesion model. Biofilms are allowed to establish during 24 h (37° C., 170 rpm) under micro-aerophilic conditions (6% O2, 7% CO2, 7% H2, 80% N2). After this 24 h, disks are rinsed 3 times a day for 3 minutes (RT, 250 rpm), for 3 consecutive days, by transferring the lid containing the disks to a new 24-well plate containing 2 mL/well of the appropriate substrate solution. As a negative control, PBS (pH 5.7) without substrate supplementation is used. After each rinsing step, disks are shortly dip-rinsed in a new 24-well plate containing fresh modified BHI medium (2 mL/well) to remove remaining substrate traces. Subsequently, the lid is transferred to another 24-well plate containing fresh modified BHI medium (2 mL/well), followed by incubation (micro-aerophilic, 37° C., 170 rpm) until the next rinsing step.
(§2) NADM, N-acetyl-D-glucosamine (“NADG”) and D-(+)-mannose are selected to determine their effects on multi-species biofilm composition. Repeated rinsing of the biofilms with the substrates at a concentration of 1M results in a significant decrease in absolute numbers in at least four of the pathogenic bacterial species tested in the assay, compared to the control, the results of which are described in Table 1 below. Absolute abundances of bacterial species are shown as mean±SD (n=3) logarithmic values of the genome equivalents per millilitre (log(Geq/mL)).

[2] = test system: S. mutans; assay: Multi-species biofilm composition: absolute abundance of S. mutans; details: mean±SD n=3
Method: as §1, §2

[3] = test system: A. naeslundii; assay: Multi-species biofilm composition: absolute abundance of A. naeslundii; details: mean±SD n=3
Method: as §1, §2

[4] = test system: S. oralis; assay: Multi-species biofilm composition: absolute abundance of S. oralis; details: for Absolute abundance S. oralis: mean±SD n=3
Method: as §1
NADM, N-acetyl-D-glucosamine (“NADG”) and D-(+)-mannose are selected to determine their effects on multi-species biofilm composition. […] decrease in absolute numbers in at least four of the pathogenic bacterial species tested in the assay, compared to the control, the results of which are described in Table 1 below. Absolute abundances of bacterial species are shown as mean±SD (n=3) logarithmic values of the genome equivalents per millilitre (log(Geq/mL)).

[5] = test system: S. salivarius; assay: Multi-species biofilm composition: absolute abundance of S. salivarius; details: mean±SD n=3
Method: as §1, §2

[6] = test system: P. gingivalis virulence genes; assay: Multi-species biofilm virulence gene expression, SYBR RT-qPCR: P. gingivalis; details: for Fold Change in virulence gene expression: fimA / Fold Change in virulence gene expression: kgp / Fold Change in virulence gene expression: partC / Fold Change in virulence gene expression: rgpA: relative to control, 2^-ΔΔCt, geometric mean n=3
Method: as §1
(§3) The expression of 33 virulence genes from 4 periodontal pathogens is analysed to evaluate the relative virulence of the substrate-treated biofilms. For all three substrates, virulence gene expression is determined relatively to the control, and these values are also compared between substrates when this is relevant (Tables 5a-5d).

[7] = test system: F. nucleatum virulence genes; assay: Multi-species biofilm virulence gene expression, SYBR RT-qPCR: F. nucleatum; details: for Fold Change in virulence gene expression: ABC transp. perm. / Fold Change in virulence gene expression: EF-G / Fold Change in virulence gene expression: but.-coA transf. / Fold Change in virulence gene expression: hemin receptor / Fold Change in virulence gene expression: hemolysin / Fold Change in virulence gene expression: ompA / Fold Change in virulence gene expression: transposase: relative to control (=1), 2^-ΔΔCt, geometric mean n=3
Method: as §1, §3

[8] = test system: human oral keratinocytes (HOK-18A); assay: Inflammatory mediator gene expression in keratinocytes exposed to substrate-treated biofilms; details: relative to control (=1), geometric mean (95% C.I.) n=3
Method: (§4) Cultures of immortalized human oral keratinocytes (HOK-18A) are grown. The relative inflammatory potential of the substrate-treated multi-species biofilms is evaluated by analyzing the expression of five inflammatory mediator genes in human oral keratinocytes (HOKs) exposed to the substrate-treated biofilms. […] The IL-8 levels in the cellular supernatant are determined as well. RNA is converted to cDNA and relative expression of inflammatory mediator genes is determined as described above with respect to the cellular housekeeping gene (3-actin.
In HOKs exposed to substrate-treated (substrate concentrations of 1 M) multi-species biofilms, mostly decreases in inflammatory mediator gene expression are observed and measured via SYBR RT-qPCR, the results of which are detailed in Table 6.
(§5) All substrates are dissolved in PBS at a concentration of 1 M (upper part) or 1% (w/v) (lower part). Values between 0 and 1 represent relative downregulation, values >1 represent relative upregulation. […] For such values, statistically significant differences between two experimental conditions are marked with ‘#1’ (vs. NADM), ‘#2’ (vs. NADG), ‘#3’ (vs. D-(+)-mannose) (P<0.05).

[9] = test system: human oral keratinocytes (HOK-18A); assay: IL-8 levels in supernatants of keratinocyte cultures exposed to substrate-treated biofilms; details: mean±SD n=3
Method: as §4
as §5, with “Table 7: IL-8 levels detected in the supernatants of human oral keratinocytes (HOK-18A) cultures exposed to substrate-treated multi-species biofilms are shown as mean±SD (n=3) values (pg/mL). All” for “All”

[10] = biofilm rinsed with substrate 1%
[11] = biofilm rinsed with substrate 1M

CC(=O)N[C@H]1C(O)O[C@H](CO)[C@@H](O)[C@@H]1O (stereo partly drawn) [NADG, N-acetyl-D-glucosamine, reference compound]
Absolute abundance Pi (P. intermedia) ([1]; substrate 1%(w/v) in PBS): 8.17 ± 0.22 log(Geq/mL) | Absolute abundance Pi (P. intermedia) ([1]; substrate 1 M in PBS): 6.93 ± 0.62 log(Geq/mL) | Absolute abundance S. mutans ([2]; substrate 1%(w/v) in PBS): 7.83 ± 0.23 log(Geq/mL) | Absolute abundance S. mutans ([2]; substrate 1 M in PBS): 8.95 ± 0.38 log(Geq/mL) | Absolute abundance An (A. naeslundii) ([3]; substrate 1%(w/v) in PBS): 7.71 ± 0.12 log(Geq/mL) | Absolute abundance An (A. naeslundii) ([3]; substrate 1 M in PBS): 6.52 ± 0.20 log(Geq/mL) | Absolute abundance S. oralis ([4]; substrate 1%(w/v) in PBS): 7.11 ± 0.14 log(Geq/mL) | Change in S. oralis numbers compared to the control ([4]; substrate 1 M): +1.0 log(Geq/mL) | Absolute abundance S. oralis ([4]; substrate 1 M in PBS): 7.97 ± 0.31*^, #1 log(Geq/mL) | Absolute abundance S. sal. (S. salivarius) ([5]; substrate 1%(w/v) in PBS): 2.65 ± 0.00 log(Geq/mL) | Absolute abundance S. sal. (S. salivarius) ([5]; substrate 1 M in PBS): 4.38 ± 1.23 log(Geq/mL) | P. gingivalis partC expression decrease ([6]; substrate 1%(w/v)): 2.8 fold | Fold Change in virulence gene expression: fimA ([6]; substrate 1%): 1.15 fold | Fold Change in virulence gene expression: kgp ([6]; substrate 1%): 1.81 fold | Fold Change in virulence gene expression: partC ([6]; substrate 1%): 0.36 fold | Fold Change in virulence gene expression: rgpA ([6]; substrate 1%): 1.31 fold | Fold Change in virulence gene expression: fimA ([6]; substrate 1M): 0.79 fold | Fold Change in virulence gene expression: kgp ([6]; substrate 1M): 0.07 fold | Fold Change in virulence gene expression: partC ([6]; substrate 1M): 0.19 fold | Fold Change in virulence gene expression: rgpA ([6]; substrate 1M): 0.39 fold | Fold Change in virulence gene expression: ABC transp. perm. ([7]; substrate 1%): 0.33 fold | Fold Change in virulence gene expression: EF-G ([7]; substrate 1%): 0.10 fold | Fold Change in virulence gene expression: but.-coA transf. ([7]; substrate 1%): 0.21 fold | Fold Change in virulence gene expression: hemin receptor ([7]; substrate 1%): 0.19 fold | Fold Change in virulence gene expression: hemolysin ([7]; substrate 1%): 0.79 fold | Fold Change in virulence gene expression: ompA ([7]; substrate 1%): 0.74 fold | Fold Change in virulence gene expression: transposase ([7]; substrate 1%): 0.98 fold | F. nucleatum hemolysin gene, upregulation ([7]; substrate 1 M): 1.9 fold | Fold Change in virulence gene expression: ABC transp. perm. ([7]; substrate 1M): 3.33 fold | Fold Change in virulence gene expression: EF-G ([7]; substrate 1M): 1.45 fold | Fold Change in virulence gene expression: but.-coA transf. ([7]; substrate 1M): 1.21 fold | Fold Change in virulence gene expression: hemin receptor ([7]; substrate 1M): 3.26 fold | Fold Change in virulence gene expression: hemolysin ([7]; substrate 1M): 1.90 fold | Fold Change in virulence gene expression: ompA ([7]; substrate 1M): 1.33 fold | Fold Change in virulence gene expression: transposase ([7]; substrate 1M): 1.27 fold | Fold change in inflammatory mediator gene expression: IL-1β [8, 10]: 0.71 (0.38-1.33) fold | Fold change in inflammatory mediator gene expression: IL-6 [8, 10]: 0.73 (0.58-0.93) fold | Fold change in inflammatory mediator gene expression: IL-8 [8, 10]: 1.00 (0.78-1.27) fold | Fold change in inflammatory mediator gene expression: MMP-8 [8, 10]: 0.52 (0.17-1.60) fold | Fold change in inflammatory mediator gene expression: TNF-α [8, 10]: 0.71 (0.28-1.35) fold | Fold change in inflammatory mediator gene expression: IL-1β [8, 11]: 0.75 (0.55-1.02) fold | Fold change in inflammatory mediator gene expression: IL-6 [8, 11]: 0.57 (0.46-0.71) fold | Fold change in inflammatory mediator gene expression: IL-8 [8, 11]: 0.14 (0.06-0.36)* fold | Fold change in inflammatory mediator gene expression: MMP-8 [8, 11]: 1.28 (0.79-2.08) fold | Fold change in inflammatory mediator gene expression: TNF-α [8, 11]: 0.89 (0.59-1.34) fold | IL-8 levels in supernatants of HOK-18A cultures ([9]; biofilm rinsed with substrate 1%(w/v)): 54.75 ± 11.66 pg/mL | IL-8 levels in supernatants of HOK-18A cultures [9, 11]: 0.22 ± 0.32 pg/mL
